Patent US10603345B2, “Pharmaceutical composition for treating respiratory disease” (Kunming Institute of Botany, The Chinese Academy of Sciences, priority 2015, dated 2020)

Legend:
Assay type in all cases: in vivo
[1] = tested on: SOD in serum and homogenate of pulmonary fibrosis model mouse; experiment: Effect on SOD in serum and homogenate of pulmonary fibrosis model mouse; details: bleomycin pulmonary fibrosis mouse, ig 28 d, dose/kg: prednisone acetate 5 mg, Test group 1 50, 2 25, 3 12.5, picrinine 5.0, vallesamine 3.0, scholaricine 3.5, 19-epi-scholaricine 1.0 mg, x ± SD
Method: (§1) Animal source: 30˜35 g male ICR mouse, from laboratory animal department of Kunming Medical University, License No. SCXK (Dian) 2011-0004.
(§2) Method and route: bleomycin was used to induce mouse pulmonary fibrosis, and after intragastrical administration for 28 d at a dose of 20 mL/kg, the animal was sacrificed at the 29th day.
(§3) Group and dose: Sham group, Model group, Positive control group, prednisone acetate (5 mg/kg) group, Test group 1: picrinine, vallesamine, scholaricine and 19-epischolaricine prepared in Example 1.7 were mixed at different ratios by weight (50 mg/kg), Test group 2: the alkaloid composition (25 mg/kg) prepared in Example 1.5, Test group 3: the alkaloid composition (12.5 mg/kg) prepared in Example 1.6, Picrinine group (5.0 mg/kg), Vallesamine group (3.0 mg/kg), Scholaricine group (3.5 mg/kg), and 19-epischolaricine group (1.0 mg/kg).
(§4) Positive control drug: prednisone acetate tablet, Approval number: H33021207, 5 mg/tablet, produced by Zhejiang Xianju Pharmaceutical Co., Ltd., Batch No. 140146.
(§5) Sample preparation: all the samples were prepared by using 0.5% carboxymethylcellulose sodium (0.5% CMC-Na).
Group and dose: in Test group 1, the ratio of picrinine, vallesamine, scholaricine and 19-epischolaricine by weight was 10:7:7:2, and the other groups and doses thereof were as described in Example 12.
Test index: SOD in serum and homogenate was used as index, and was determined by xanthine oxidase method.

[2] = tested on: Col-1 in homogenate of pulmonary fibrosis model mouse; experiment: Effect on Col-1 in homogenate of pulmonary fibrosis model mouse; details: ELISA, bleomycin pulmonary fibrosis mouse, ig 28 d, dose/kg: prednisone acetate 5 mg, Test group 1 50, 2 25, 3 12.5, picrinine 5.0, vallesamine 3.0, scholaricine 3.5, 19-epi-scholaricine 1.0 mg, x ± SD
Method: as §1, §2, §3, §4, §5
Group and dose: in Test group 1, the ratio of picrinine, vallesamine, scholaricine and 19-epischolaricine by weight was 20:17:17:4, and the other groups and doses thereof were as described in Example 12.
Test index: Col-1 in homogenate was used as index, and was determined by enzyme linked immunosorbent assay.

[3] = tested on: Hyp in homogenate of pulmonary fibrosis model mouse; experiment: Effect on Hyp in homogenate of pulmonary fibrosis model mouse; details: bleomycin pulmonary fibrosis mouse, ig 28 d, dose/kg: prednisone acetate 5 mg, Test group 1 50, 2 25, 3 12.5, picrinine 5.0, vallesamine 3.0, scholaricine 3.5, 19-epi-scholaricine 1.0 mg, x ± SD
Method: as §1, §2, §3, §4
(§6) Sample preparation: all the samples were prepared by using 0.5% carboxymethylcellulose sodium (0.5% CMC-Na). […]
Test index: Hyp in homogenate was used as index, and was determined by enzyme linked immunosorbent assay.

[4] = tested on: LDH in serum of pulmonary fibrosis model mouse; experiment: Effect on LDH in serum of pulmonary fibrosis model mouse; details: bleomycin pulmonary fibrosis mouse, ig 28 d, dose/kg: prednisone acetate 5 mg, Test group 1 50, 2 25, 3 12.5, picrinine 5.0, vallesamine 3.0, scholaricine 3.5, 19-epi-scholaricine 1.0 mg, x ± SD
Method: as §1, §2, §3, §4, §6
Test index: LDH in serum was used as index, and was determined by 2, 4-dinitrophenylhydrazine method.

[5] = tested on: MDA in serum and homogenate of pulmonary fibrosis model mouse; experiment: Effect on MDA in serum and homogenate of pulmonary fibrosis model mouse; details: bleomycin pulmonary fibrosis mouse, ig 28 d, dose/kg: prednisone acetate 5 mg, Test group 1 50, 2 25, 3 12.5, picrinine 5.0, vallesamine 3.0, scholaricine 3.5, 19-epi-scholaricine 1.0 mg, x ± SD
Method: as §1, §2, §3, §4, §5
Group and dose: in Test group 1, the ratio of picrinine, vallesamine, scholaricine and 19-epischolaricine by weight was 8:5:5:1, and the other groups and doses thereof were as described in Example 12.
Test index: MDA in serum and homogenate was used as index, and was determined by thiobabituric acid method.

[6] = tested on: KL-6 in serum of pulmonary fibrosis model mouse; experiment: Effect on KL-6 in serum of pulmonary fibrosis model mouse; details: ELISA, bleomycin pulmonary fibrosis mouse, ig 28 d, dose/kg: prednisone acetate 5 mg, Test group 1 50, 2 25, 3 12.5, picrinine 5.0, vallesamine 3.0, scholaricine 3.5, 19-epi-scholaricine 1.0 mg, x ± SD
Method: as §1, §2, §3, §4, §5
Group and dose: in Test group 1, the ratio of picrinine, vallesamine, scholaricine and 19-epischolaricine by weight was 45:38:30:8, and the other groups and doses thereof were as described in Example 12.
Test index: KL-6 in serum was used as index, and was determined by enzyme linked immunosorbent assay.

With CC(=O)OCC(=O)[C@@]1(O)CC[C@H]2[C@@H]3CCC4=CC(=O)C=C[C@]4(C)[C@H]3C(=O)C[C@@]21C [prednisone acetate, reference compound] the “SOD homogenate” value ([1]; homogenate) was 60.0 ± 15.9 U/mg prot, the “SOD Serum” value ([1]; serum) was 15.5 ± 3.8 U/mg prot and the Col-1 [2] was 6.0 ± 2.1 μg/g prot. For the same compound, the Hyp [3] was 2.9 ± 0.8 μg/g prot, the LDH [4] was 10.5 ± 3.4 U/g prot and the “MDA Homogenate” value ([5]; homogenate) was 19.0 ± 6.6 nmol/mg prot. The “MDA Serum” value ([5]; serum) was 0.55 ± 0.17 nmol/mg prot and the KL-6 [6] was 3.00 ± 1.00 U/mg prot.
